Laboratory results: US20260041693A1, “COMBINATION THERAPY OF CDK7 INHIBITORS WITH OTHER ANTI-CANCER THERAPIES” (QURIENT CO., LTD., priority 2022, published 2026)

Assays:
RENCA cells = experiment: Cell viability assay (CellTiter-Glo); assay type: cell-based; details: Mus musculus, 72 hours, read-out: IC50 of RENCA cell growth/viability
Method: RENCA renal adenocarcinoma were treated with various concentrations of compound 47 for 72 hours. Cell viability was measured using the CellTiter-Glo assay system (Promega). Luminescence units were normalized to those of untreated cells and are presented as the percentage of cell viability. IC50 was calculated using the dose-response curve generated by GraphPad Prism.

CDK7 = biological target: T1, CDK7 (Mus musculus, UniProt Q03147); experiment: Target occupancy assay (Bio-compound 3 pull-down, anti-CDK7 blot); assay type: cell-based; details: RENCA cells treated 4 hours; lysate incubated with 1 μM Bio-compound 3
T1 construct: endogenous in cells; host or cells: RENCA cells
T1 sequence (Q03147 2-346 limits assumed): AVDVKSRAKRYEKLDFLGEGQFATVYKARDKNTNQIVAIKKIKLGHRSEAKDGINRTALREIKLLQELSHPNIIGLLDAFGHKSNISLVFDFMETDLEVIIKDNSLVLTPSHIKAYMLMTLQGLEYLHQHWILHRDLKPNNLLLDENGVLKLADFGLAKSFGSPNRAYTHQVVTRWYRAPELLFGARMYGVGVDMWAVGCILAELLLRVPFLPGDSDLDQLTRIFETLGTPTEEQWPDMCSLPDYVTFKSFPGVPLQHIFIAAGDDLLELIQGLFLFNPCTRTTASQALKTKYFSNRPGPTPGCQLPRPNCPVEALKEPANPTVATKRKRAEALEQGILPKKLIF
T1 sequence (Q61458 1-323 partner): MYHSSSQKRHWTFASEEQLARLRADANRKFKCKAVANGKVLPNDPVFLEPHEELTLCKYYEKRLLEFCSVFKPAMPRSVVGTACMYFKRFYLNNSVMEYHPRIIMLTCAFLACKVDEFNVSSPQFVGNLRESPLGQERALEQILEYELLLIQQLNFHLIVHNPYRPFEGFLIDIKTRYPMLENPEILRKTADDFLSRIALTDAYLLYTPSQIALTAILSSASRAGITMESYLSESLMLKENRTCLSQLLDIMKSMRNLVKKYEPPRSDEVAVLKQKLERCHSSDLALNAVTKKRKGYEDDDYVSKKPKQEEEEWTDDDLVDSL
T1 sequence (P51949 1-309 partner): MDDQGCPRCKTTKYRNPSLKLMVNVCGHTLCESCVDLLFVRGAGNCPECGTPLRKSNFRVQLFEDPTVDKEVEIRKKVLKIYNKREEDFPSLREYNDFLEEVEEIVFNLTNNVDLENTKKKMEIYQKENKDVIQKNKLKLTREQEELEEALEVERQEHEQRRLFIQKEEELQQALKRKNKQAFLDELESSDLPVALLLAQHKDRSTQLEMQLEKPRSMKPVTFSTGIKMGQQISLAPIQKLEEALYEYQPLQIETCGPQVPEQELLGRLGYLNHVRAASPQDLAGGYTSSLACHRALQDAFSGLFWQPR
Method: RENCA cells were treated with various concentrations of compound 47 for 4 hours. Cells were washed with ice-cold PBS twice and then lysed with ice-cold lysis buffer (0.025M Tris, 0.15M NaCl, 0.001M EDTA, 1% NP-40, 5% glycerol, pH 7.4) with protease and phosphatase cocktails (Sigma-Aldrich). Lysed cells were centrifuged at 12,000 rpm at 4′C for 10 minutes and then the supernatant was collected. Protein concentrations were determined using a BCA protein quantification kit (Thermo Fisher Scientific, #23227). Equal amounts of protein were incubated with 1 μM of biotinylated compound 3 (Bio-compound 3; biotinylated analog of compound 47) at 4′C overnight and then immunoprecipitated with streptavidin-agarose bead. Pull-downed proteins were eluted, loaded to SDS-PAGE, transferred to a PVDF membrane (MilliporeSigma), and then treated with anti-CDK7 antibody. CDK7 protein was detected by HRP-conjugated secondary antibody. The image was obtained by ImageQuant™ LAS4000.

[1] = tested on: phosphorylated form of H2AX (Ser139) in RENCA cells; experiment: Western blot analysis of phosphorylated H2AX; assay type: cell-based, mouse; details: 48 hours
Method: RENCA cells were treated with various concentrations of compound 47 in 5% CO2 at 37′C for 48 hours. Cells were washed with ice-cold PBS twice and lysis buffer was added. Cells were collected and kept on the ice for 30 min. Lysed cells were centrifuged at 12,000 rpm at 4′C for 10 minutes, and then the supernatant was collected. Protein concentrations were quantified using a BCA protein Quantification kit. Equal amounts of protein were fractionated by SDS-PAGE, transferred to a PVDF membrane, and then treated with anti-phospho-H2AX (Ser139) antibody. The phosphorylated form of H2AX protein was detected by HRP-conjugated secondary antibody and the signal was obtained with Super Signal Western blot enhancer. The image was acquired by ImageQuant™ LAS 4000.

RENCA tumor = experiment: RENCA syngeneic renal tumor mouse model; assay type: in vivo, BALB/c mice; details: compound 47 10 mg/kg i.p. every day; anti-PD-1 antibody 10 mg/kg i.p. twice a week; alone or both
Method: RENCA cells (1×10^5) were subcutaneously implanted in the right flank of BALB/c mice. Tumor-bearing mice were randomized and then treated with compound 47 (10 mg/kg, intraperitoneally every day), anti-PD-1 antibody (10 mg/kg, intraperitoneally twice a week, clone: RMP1-14, Bio X Cell), or both compound 47 and anti-PD-1 antibody when the average tumor volume reached 31 mm^3 (N=7 or 8 per group). Control mice were treated with vehicle and rat IgG2a isotype control antibody (clone: 2A3, Bio X Cell). Tumor volume and body weight were measured twice per week.

OVCAR3 tumor = experiment: OVCAR3 high-grade serous ovarian cancer cell line-derived xenograft model; assay type: in vivo, BALB/c nude mice; details: compound 47 3 mg/kg i.p. every day; olaparib 100 mg/kg orally every day; alone or both
Method: (§1) OVCAR3 cells (1×10^7) mixed with matrigel (50:50) were subcutaneously implanted in the right flank of female BALB/c nude mice. Tumor-bearing mice were randomized and treated with compound 47 (3 mg/kg, intraperitoneally every day), olaparib (100 mg/kg, orally every day), or both compound 47 and olaparib when the average tumor volume reached 173 mm^3 (N=8 per group). Tumor volume and body weight were measured twice per week.

DU145 tumor = experiment: DU145 castration-resistant prostate cancer cell line-derived xenograft model; assay type: in vivo, BALB/c nude mice; details: compound 47 3 mg/kg i.p. every day; docetaxel 15 mg/kg i.p. once a week; alone or both
Method: DU145 cells (1×10^7) mixed with matrigel (50:50) were subcutaneously implanted in the right flank of male BALB/c nude mice. Tumor-bearing mice were randomized and then treated with compound 47 (3 mg/kg, intraperitoneally every day), docetaxel (15 mg/kg, intraperitoneally once a week), or both compound 47 and docetaxel when the average tumor volume reached 154 mm^3 (N=8 per group). Tumor volume and body weight were measured twice per week.

MCF7 tumor = experiment: MCF7 human breast adenocarcinoma xenograft model; assay type: in vivo, BALB/c nude mice; details: compound 47 3 mg/kg i.p. every day; fulvestrant 2.5 mg/dose s.c. every day; alone or both
Method: as §1, with “MCF7” for “OVCAR3”, “fulvestrant (2.5 mg/dose, subcutaneously” for “olaparib (100 mg/kg, orally”, “fulvestrant” for “olaparib”, “117” for “173”, “week. […] On day 28, tumor volume of the compound 47 with fulvestrant combination group was reduced compared to the compound 47 alone group or the fulvestrant treatment group.” for “week.”

[2] = tested on: g-H2AX foci in OVCAR3 cells; experiment: g-H2AX foci imaging in OVCAR3 cells after cisplatin; assay type: cell-based, human; details: 100 nM cisplatin 24 hours, wash, then Compound 47, 24, 48 and 72 hours
Method: OVCAR3 cells were treated with DMSO or 100 nM of cisplatin for 24 hours. Cells were then washed with culture media and treated with Compound 47 at various concentrations. Cells were collected 24, 48 and 72 hours after cisplatin wash and then stained with 4′,6-diamidino-2-phenylindole (DAPI) and anti-phospho-histone H2AX ([…]). g-H2AX foci inside the nucleus were identified by Alexa-568 staining. Fluorescence images of g-H2AX foci were captured using a confocal imaging system, CQ1 (×40 objective).

[3] = tested on: g-H2AX or 53BP1 foci in PC3 cells; experiment: g-H2AX / 53BP1 foci imaging in PC3 cells after X-ray irradiation; assay type: cell-based, human; details: Compound 47 1 hour then X-ray 8, 4 or 2 Gy, 24 hours after irradiation
Method: PC3 cells were treated with DMSO or various concentrations of Compound 47 for 1 hour. Cells were then irradiated with X-ray at set of 225 KV, 17.7 mA for 5 min using a Faxitron Specimen Radiography System (8 Gy, 4 Gy and 2 Gy irradiation, FIGS. 7A-7C, and 7D-7F, respectively). Cells were collected at 1-, 4-, 6-, 24- and 48-hour post X-ray irradiation and stained with HOECHST and anti-phospho-histone H2AX ([…]) or 53BP1. g-H2AX or 53BP1 foci inside the nucleus were identified with Alexa Flour488. Fluorescence images of the foci were obtained using Opera Phenix 3 High-content screening system (×40 objective) and the average granule number f SD of g-H2AX (FIG. 7A to 7C) or of 53BP1 (FIG. 7D to 7F) per cell was determined using MetaXpress software.

Compound	TGI (OVCAR3 tumor) [%]	TGI (DU145 tumor) [%]	TGI (MCF7 tumor) [%]	further results
C=C(F)C(=O)Nc1ccc2c(-c3ccccc3CNc3nc(NC[C@H]4CCNC[C@@H]4O)nc4c(C(C)C)cnn34)nccc2c1 [Compound 47]	36	61	81	IC50 (RENCA cells): 20 nM; CDK7 occupancy (CDK7): in a dose dependent manner; phosphorylation of H2AX at Serine-139 [1]: induced phosphorylation of H2AX at the Serine-139 residue in a dose dependent manner; tumor growth inhibition (TGI) (RENCA tumor): 50.2%; percentage of g-H2AX-positive cells (g-H2AX foci) [2]: increased the percentage of g-H2AX foci in a time- and dose-dependent manner; DNA damage sustaining effect (granule number of g-H2AX or 53BP1 per cell) [3]: significant DNA damage sustaining effects
C[C@]12CC[C@@H]3c4ccc(O)cc4C[C@@H](CCCCCCCCC[S+]([O-])CCCC(F)(F)C(F)(F)F)[C@H]3[C@@H]1CC[C@@H]2O (stereo partly drawn) [fulvestrant, reference compound]			81	
O=C(c1cc(Cc2n[nH]c(=O)c3ccccc23)ccc1F)N1CCN(C(=O)C2CC2)CC1 [olaparib, reference compound]	38			
CC(=O)O[C@@]12CO[C@@H]1C[C@H](O)[C@@]1(C)C(=O)[C@H](O)C3=C(C)[C@@H](OC(=O)[C@H](O)[C@@H](NC(=O)OC(C)(C)C)c4ccccc4)C[C@@](O)([C@@H](OC(=O)c4ccccc4)[C@H]21)C3(C)C [docetaxel, reference compound]		25		
